Assay results: the NIST ThermoML archive (doi:10.1016/j.jct.2012.05.001)
± gives the expanded uncertainty stated by the source.

Conditions: 101.33 kPa, Liquid; for viscosity: Falling or rolling sphere viscometry; for mass density: Vibrating tube method

viscosity (293.15 K) | mass density (293.15 K) | viscosity (298.15 K) | mass density (298.15 K) | viscosity (303.15 K) | mass density (303.15 K) | viscosity (323.15 K) | mass density (323.15 K) | viscosity (343.15 K) | mass density (343.15 K) | SMILES
67.61 ± 1.1 mPa·s | 1178.5 ± 25 kg/m3 | 52.01 ± 0.61 mPa·s | 1175.1 ± 25 kg/m3 | 40.51 ± 0.52 mPa·s | 1171.7 ± 25 kg/m3 | 18.19 ± 0.26 mPa·s | 1158.1 ± 25 kg/m3 | 9.698 ± 0.14 mPa·s | 1144.3 ± 25 kg/m3 | NCCO.O=CO [2-hydroxyethylammonium formate]
807.6 ± 98 mPa·s | 1205 ± 25 kg/m3 | 533.41 ± 56 mPa·s | 1201.7 ± 25 kg/m3 | 369.63 ± 32 mPa·s | 1198.3 ± 25 kg/m3 | 106.16 ± 3.9 mPa·s | 1185 ± 25 kg/m3 | 41.09 ± 0.8 mPa·s | 1171.7 ± 25 kg/m3 | O=C[O-].OCC[NH2+]CCO [diethanolammonium formate]
